Test results published in patent US20050282873A1, “Epothilone derivative for the treatment of hepatoma and other cancer diseases” (priority 2002, published 2005).

Key:
Type in all cases: in vivo, human
advanced renal cancer = assay: Open-label, single-arm, two-stage multicenter efficacy study in patients with advanced renal cancer; settings: i.v. 2.5 mg/m2, 5 minute bolus infusion weekly for three weeks, one week off, trial ongoing
Protocol: An open-label, single-arm, two-stage multicenter study investigating the efficacy of 7,11-Dihydroxy-8,8,10,12,16-pentamethyl-3-[1-methyl-2-(2-methyl-thiazol-4-yl)-viny]-4,17-dioxa-bicyclo[14.1.0]heptadecane-5,9-dione administered intravenously at 2.5 mg/m2 as a 5 minute bolus infusion repeated every week for three weeks followed by one week off in patients with advanced renal cancer. 7,11-Dihydroxy-8,8,10,12,16-pentamethyl-3-[1-methyl-2-(2-methyl-thiazol-4-yl)-vinyl]-4,17-dioxa-bicyclo[14.1.0]heptadecane-5,9-dione is administered once every week for three weeks followed by a one-week drug holiday until either progression of disease or unacceptable toxicities occurs. Each four-week period is considered one cycle. Patients are evaluated for tumor response one week after their last dose of every other cycle, starting with Cycle 2. Patients may, at any time, have their dose reduced to 2.0 mg/m2 if in the investigators opinion the original dose is either intolerable or unsafe for any given patient, and without such a dose reduction the patient would be forced to withdraw from the study. All dose modifications are captured on the dose administration record CRF. The study period for efficacy evaluation is up to six cycles. The study will enroll patients with histologically confirmed transitional cell carcinoma of the kidney. […]

[1] = test system: androgen-independent prostate cancer; assay: Open-label, single-arm, two-stage multicenter efficacy study in androgen-independent prostate cancer; settings: i.v. 2.5 mg/m^2, 5 minute bolus infusion weekly for three weeks, one week off; chemo-naïve or failed one prior chemotherapy; trial ongoing
Protocol: Open-label, single-arm, two-stage, multicenter study to investigate the efficacy of EPO906 administered intravenously at 2.5 mg/m^2 as a 5 minute bolus infusion once a week for three weeks followed by one week off in patients with androgen-independent prostate cancer who are chemo-naïve or who have failed one prior chemotherapy. 7,11-Dihydroxy-8,8,10,12,16-pentamethyl-3-[1-methyl-2-(2-methyl-thiazol-4-yl)-vinyl]-4,17-dioxa-bicyclo[14.1.0]heptadecane-5,9-dione is administered once every week for three weeks followed by a one-week drug holiday until either progression of disease or unacceptable toxicities occurs. Each four-week period is considered one cycle. Patients are evaluated for tumor response one week after their last dose of every other cycle, starting with Cycle 2. Patients may, at any time, have their dose reduced to 2.0 mg/m^2 if in the investigator's opinion the original dose is either intolerable or unsafe for any given patient, and without such a dose reduction the patient will be forced to withdraw from the study. All dose modifications are captured on the dose administration record CRF. The study period for efficacy evaluation is up to six cycles.
Patients taking PC-SPES must discontinue therapy for a minimum of 4 weeks. […]

[2] = test system: advanced colorectal cancer; assay: Open-label, single-arm, two-stage multicenter efficacy study in advanced colorectal cancer, once every three weeks; settings: i.v. 6.0 mg/m^2, 5 minute bolus infusion once every three weeks; colorectal cancer patients who failed fluoropyrimidine and Irinotecan or oxaliplatin; trial ongoing
Protocol: An open-label, single-arm, two-stage, multicenter study to investigate the efficacy of 7,11-Dihydroxy-8,8,10,12,16-pentamethyl-3-[1-methyl-2-(2-methyl-thiazol-4-yl)-vinyl]4,17-dioxa-bicyclo[14.1.0]heptadecane-5,9-dione administered intravenously at 6.0 mg/m^2 as a 5 minute bolus infusion repeated once every three weeks in patients with advanced colorectal cancer. 7,11-Dihydroxy-8,8,10,12,16-pentamethyl-3-[1-methyl-2-(2-methyl-thiazol-4-yl)vinyl]4,17-dioxa-bicyclo[14.1.0]heptadecane-5,9-dione is administered once every three weeks until either progression of disease or unacceptable toxicities occurs. Each three-week period is considered one cycle. Patients are evaluated for tumor response one week after the last dose of every third cycle, starting with Cycle 3. Patients may, at any time, have their dose reduced to 5.4 mg/m^2 or 4.8 mg/m^2 if in the investigator's opinion the original dose is either intolerable or unsafe for any given patient, and without such a dose reduction the patient will be forced to withdraw from the study. All dose modifications are captured on the Dose Administration Record CRF.
The study period for efficacy evaluation is up to nine cycles. […]

[3] = test system: advanced colorectal cancer; assay: Open-label, single-arm, two-stage multicenter efficacy study in advanced colorectal cancer, weekly regimen; settings: i.v. 2.5 mg/m2, 5 minute bolus infusion weekly for three weeks, one week off; colorectal cancer patients who failed fluoropyrimidine and Irinotecan or oxaliplatin; trial ongoing
Protocol: An open-label, single-arm, two-stage multicenter study to investigate the efficacy of 7,11-Dihydroxy-8,8,10,12,16-pentamethyl-3-[1-methyl-2-(2-methyl-thiazol-4-yl)vinyl]-4,17-dioxa-bicyclo[14.1.0]heptadecane-5,9-dione administered intravenously at 2.5 mg/m2 as a 5 minute bolus infusion repeated every week for three weeks followed by one week off in patients with advanced colorectal cancer. 7,11-Dihydroxy-8,8,10,12,16-pentamethyl-3-[1-methyl-2-(2-methyl-thiazol-4-yl)-vinyl-]-4,17-dioxa-bicyclo[14.1.0]heptadecane-5,9-dione is administered once every week for three weeks followed by a one-week drug holiday until either progression of disease or unacceptable toxicities occurs. Each four-week period is considered one cycle. Patients are evaluated for tumor response one week after their last dose of every other cycle, starting with Cycle 2. Patients may, at any time, have their dose reduced to 2.0 mg/m^2 if in the investigator's opinion the original dose is either intolerable or unsafe for any given patient, and without such a dose reduction the patient will be forced to withdraw from the study. All dose modifications are captured on the dose administration record CRF. The study period for efficacy evaluation is up to six cycles. […]

[4] = test system: ovarian, primary Fallopian, or primary peritoneal cancer; assay: Open-label, single-arm, two-stage, multi-center efficacy study in ovarian, primary Fallopian or primary peritoneal cancer patients; settings: i.v. 2.5 mg/m2, 5 minute bolus infusion weekly for three weeks, one week off; patients failed or relapsed within six months of first-line taxane/platinum therapy; study ongoing
Protocol: An open-label, single-arm, two-stage, multi-center study investigating the efficacy of 7,11-Dihydroxy-8,8,10,12,16-pentamethyl-3-[1-methyl-2-(2-methyl-thiazol-4-yl)-vinyl]-4,17-dioxa-bicyclo[14.1.0]heptadecane-5,9-dione administered intravenously at 2.5 mg/m2 as a 5 minute bolus infusion repeated every week for three weeks followed by one week off in patients who have ovarian, primary Fallopian, or primary peritoneal cancer. […] Chemotherapies other than taxane/platinum or an additional agent to this regimen will not be allowed. […] A third therapeutic agent administered as part of the taxane/platinum therapy is permitted for refractory disease if all other criteria are met.

CC(=Cc1csc(C)n1)C1CC2OC2(C)CCCC(C)C(O)C(C)C(=O)C(C)(C)C(O)CC(=O)O1 (centres unmarked) [7,11-Dihydroxy-8,8,10,12,16-pentamethyl-3-[1-methyl-2-(2-methyl-thiazol-4-yl)-vinyl]-4,17-dioxa-bicyclo[14.1.0]heptadecane-5,9-dione]
response of patients in the study (advanced renal cancer): Several patients show a positive response | response of patients in the trial [1]: Several patients show a positive response | response of patients in the trial [2]: Several patients shown a positive response | response of patients in the trial [3]: Several patients shown a positive response | response of patients in the study [4]: Several patients show a positive response
